Each block holds one compound with its values, some of them ahead of it. Calls of active or inactive are those of the source.
How the values were obtained:
fMet-Leu-Phe receptor = fMet-Leu-Phe receptor (Homo sapiens, UniProt P21462); assay: formyl peptide receptor binders – dose response (AID 519); format: functional
[1] = rise of 4N DNA cells, HeLa – IC50, dose response (AID 1117351); format: functional, cell-based
[2] = rise of 2N DNA cells, HeLa – IC50, dose response (AID 1117349); format: functional, cell-based
[3] = OVCAR-3 cell viability loss – plate reader, dry powder samples, PAX8 inhibitor project, dose response (AID 743044); format: functional, cell-based
[4] = OVCAR8 cell viability loss – plate reader, dry powder samples, PAX8 project, dose response (AID 743197); format: functional, cell-based; settings: OVCAR-8
Paired box protein Pax-8 = Paired box protein Pax-8 (Homo sapiens, UniProt Q06710); assay: PAX8 transcriptional activity inhibition in RMG-I – RMG-I cells, luciferase, cherry-pick, dose response (AID 687027); format: functional, cell-based;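 note: luciferase reporter driven by Pax8 target thyroperoxidase promoter measured by SteadyGlo luminescence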
Sequence of Paired box protein Pax-8 (Q06710 whole entry): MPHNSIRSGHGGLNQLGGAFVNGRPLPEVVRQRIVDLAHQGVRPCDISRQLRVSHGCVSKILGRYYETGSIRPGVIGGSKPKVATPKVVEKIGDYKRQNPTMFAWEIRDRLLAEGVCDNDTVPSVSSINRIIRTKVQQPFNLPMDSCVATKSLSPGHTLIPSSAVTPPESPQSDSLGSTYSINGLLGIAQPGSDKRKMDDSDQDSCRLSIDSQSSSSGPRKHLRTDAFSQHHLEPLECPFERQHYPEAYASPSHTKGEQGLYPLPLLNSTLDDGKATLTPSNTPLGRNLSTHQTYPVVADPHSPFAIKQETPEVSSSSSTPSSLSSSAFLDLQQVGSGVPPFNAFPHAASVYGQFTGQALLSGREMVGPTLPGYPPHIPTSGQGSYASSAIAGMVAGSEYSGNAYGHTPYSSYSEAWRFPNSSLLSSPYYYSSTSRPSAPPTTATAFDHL

[5] = A2780 cell killing – plate reader, dry powder samples, cytotoxicity control, dose response (AID 743046); format: functional, cell-based
[6] = target: Disintegrin and metalloproteinase domain-containing protein 17 (Homo sapiens, UniProt P78536); assay: inhibition of ADAM17 substrate cleavage – biochemical, quenched FRET substrate, counter-screen for ADAM10 exosite inhibitor project, dose response (AID 743253)
Sequence of Disintegrin and metalloproteinase domain-containing protein 17 (P78536 whole entry, the tested form may be a part): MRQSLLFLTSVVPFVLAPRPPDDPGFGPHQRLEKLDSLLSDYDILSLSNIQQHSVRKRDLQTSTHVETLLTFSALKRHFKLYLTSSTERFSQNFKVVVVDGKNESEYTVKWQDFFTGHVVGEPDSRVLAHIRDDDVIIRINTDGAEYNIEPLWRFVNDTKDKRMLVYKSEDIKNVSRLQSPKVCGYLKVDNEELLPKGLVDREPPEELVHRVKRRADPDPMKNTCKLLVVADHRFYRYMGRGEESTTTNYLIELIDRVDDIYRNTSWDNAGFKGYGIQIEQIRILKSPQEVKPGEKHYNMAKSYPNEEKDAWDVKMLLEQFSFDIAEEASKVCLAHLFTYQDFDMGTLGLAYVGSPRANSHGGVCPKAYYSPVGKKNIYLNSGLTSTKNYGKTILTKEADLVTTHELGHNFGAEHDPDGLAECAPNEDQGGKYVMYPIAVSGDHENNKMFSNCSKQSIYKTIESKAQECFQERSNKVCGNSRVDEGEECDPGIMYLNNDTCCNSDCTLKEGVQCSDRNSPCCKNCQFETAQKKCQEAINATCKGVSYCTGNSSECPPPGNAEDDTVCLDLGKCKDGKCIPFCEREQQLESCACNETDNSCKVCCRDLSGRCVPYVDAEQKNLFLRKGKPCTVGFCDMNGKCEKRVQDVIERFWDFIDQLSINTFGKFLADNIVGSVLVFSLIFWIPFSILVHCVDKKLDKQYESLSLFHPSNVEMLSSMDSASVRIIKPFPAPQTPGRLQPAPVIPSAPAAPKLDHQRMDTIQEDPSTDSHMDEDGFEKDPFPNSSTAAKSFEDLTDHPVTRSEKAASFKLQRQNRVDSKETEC

[7] = potency of ADAM10 substrate cleavage blockers – biochemical, QFRET, dose response (AID 743254);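 note: ADAM10 enzyme with the DM2 quenched FRET peptide as substrate; EDANS fluorescence gain as the protease cuts the substrate; inhibitor potency against ADAM10 proteolytic activity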
[8] = HIV-1 Vif–A3G interaction blockers – biochemical, TR-FRET, GST-Vif 1-94, biotin-A3G peptide, dose response retest, primary screen (AID 1117319); format: functional;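 note: TR-FRET signal of purified GST-Vif binding a biotinylated A3G peptide; inhibitors lower the FRET signal by blocking Vif and A3G binding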
[9] = target: T1, Sentrin-specific protease 7 (Homo sapiens, UniProt Q9BQF6); format: functional;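 note: Luminescence-based dose-response confirmation of ultra-high-throughput screening hits, measuring inhibition of SENP7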
T1 sequence (Q9BQF6 whole entry): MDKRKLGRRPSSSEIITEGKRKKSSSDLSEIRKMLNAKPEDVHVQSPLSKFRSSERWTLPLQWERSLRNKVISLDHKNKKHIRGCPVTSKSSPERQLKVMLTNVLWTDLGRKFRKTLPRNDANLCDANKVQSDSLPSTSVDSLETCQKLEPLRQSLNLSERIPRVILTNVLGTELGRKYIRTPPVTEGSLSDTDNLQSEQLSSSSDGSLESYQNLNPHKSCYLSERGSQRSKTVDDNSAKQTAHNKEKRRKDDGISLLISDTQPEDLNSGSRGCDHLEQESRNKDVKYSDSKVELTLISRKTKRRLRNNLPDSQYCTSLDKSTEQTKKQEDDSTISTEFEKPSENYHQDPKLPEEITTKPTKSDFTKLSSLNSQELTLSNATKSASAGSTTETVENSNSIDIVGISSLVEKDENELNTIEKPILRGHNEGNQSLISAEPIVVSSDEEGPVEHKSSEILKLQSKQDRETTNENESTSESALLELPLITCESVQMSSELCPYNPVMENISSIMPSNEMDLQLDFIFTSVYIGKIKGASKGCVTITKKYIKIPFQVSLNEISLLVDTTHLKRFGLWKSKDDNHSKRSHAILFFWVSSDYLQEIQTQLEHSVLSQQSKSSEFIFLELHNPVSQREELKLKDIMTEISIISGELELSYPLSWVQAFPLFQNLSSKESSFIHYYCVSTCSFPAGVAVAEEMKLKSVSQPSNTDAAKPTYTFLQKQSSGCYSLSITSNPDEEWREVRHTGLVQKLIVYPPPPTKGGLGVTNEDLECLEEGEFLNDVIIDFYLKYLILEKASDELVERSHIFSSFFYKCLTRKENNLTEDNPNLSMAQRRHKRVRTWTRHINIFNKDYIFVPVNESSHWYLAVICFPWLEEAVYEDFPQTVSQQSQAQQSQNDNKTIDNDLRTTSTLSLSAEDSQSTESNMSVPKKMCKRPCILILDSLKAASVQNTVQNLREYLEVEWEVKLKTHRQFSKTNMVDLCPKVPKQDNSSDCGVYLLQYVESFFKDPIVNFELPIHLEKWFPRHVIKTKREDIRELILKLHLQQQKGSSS

[10] = target: T2, Sentrin-specific protease 8 (Homo sapiens, UniProt Q96LD8); format: functional;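 note: luminescence read-out of SENP8 inhibition, dose-response confirmation following an ultra-high-throughput screen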
T2 sequence (Q96LD8 whole entry): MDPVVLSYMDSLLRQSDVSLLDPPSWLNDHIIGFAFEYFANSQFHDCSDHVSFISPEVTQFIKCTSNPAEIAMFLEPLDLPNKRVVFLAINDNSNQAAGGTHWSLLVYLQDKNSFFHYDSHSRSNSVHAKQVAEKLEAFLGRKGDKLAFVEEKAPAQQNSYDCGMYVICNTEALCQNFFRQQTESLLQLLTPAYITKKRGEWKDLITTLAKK

Caspase-3 = target: T3, Caspase-3 (Homo sapiens, UniProt P42574); format: functional;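 note: Dose-response selectivity test against caspase-3 for candidate inhibitors of sentrin-specific proteases (SENPs)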
T3 sequence (P42574 whole entry): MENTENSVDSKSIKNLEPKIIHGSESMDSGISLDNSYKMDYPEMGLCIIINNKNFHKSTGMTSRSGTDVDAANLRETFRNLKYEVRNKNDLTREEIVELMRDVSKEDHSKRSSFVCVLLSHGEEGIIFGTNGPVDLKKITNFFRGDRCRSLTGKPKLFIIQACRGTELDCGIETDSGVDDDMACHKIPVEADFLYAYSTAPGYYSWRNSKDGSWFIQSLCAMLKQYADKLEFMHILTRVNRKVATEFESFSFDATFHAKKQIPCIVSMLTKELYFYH

[11] = target: T4, Sentrin-specific protease 6 (Homo sapiens, UniProt Q9GZR1); format: functional;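 note: Luminescence-based dose-response confirmatory assay of SENP6 inhibition, following up an ultra-high-throughput screen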
T4 sequence (Q9GZR1 whole entry): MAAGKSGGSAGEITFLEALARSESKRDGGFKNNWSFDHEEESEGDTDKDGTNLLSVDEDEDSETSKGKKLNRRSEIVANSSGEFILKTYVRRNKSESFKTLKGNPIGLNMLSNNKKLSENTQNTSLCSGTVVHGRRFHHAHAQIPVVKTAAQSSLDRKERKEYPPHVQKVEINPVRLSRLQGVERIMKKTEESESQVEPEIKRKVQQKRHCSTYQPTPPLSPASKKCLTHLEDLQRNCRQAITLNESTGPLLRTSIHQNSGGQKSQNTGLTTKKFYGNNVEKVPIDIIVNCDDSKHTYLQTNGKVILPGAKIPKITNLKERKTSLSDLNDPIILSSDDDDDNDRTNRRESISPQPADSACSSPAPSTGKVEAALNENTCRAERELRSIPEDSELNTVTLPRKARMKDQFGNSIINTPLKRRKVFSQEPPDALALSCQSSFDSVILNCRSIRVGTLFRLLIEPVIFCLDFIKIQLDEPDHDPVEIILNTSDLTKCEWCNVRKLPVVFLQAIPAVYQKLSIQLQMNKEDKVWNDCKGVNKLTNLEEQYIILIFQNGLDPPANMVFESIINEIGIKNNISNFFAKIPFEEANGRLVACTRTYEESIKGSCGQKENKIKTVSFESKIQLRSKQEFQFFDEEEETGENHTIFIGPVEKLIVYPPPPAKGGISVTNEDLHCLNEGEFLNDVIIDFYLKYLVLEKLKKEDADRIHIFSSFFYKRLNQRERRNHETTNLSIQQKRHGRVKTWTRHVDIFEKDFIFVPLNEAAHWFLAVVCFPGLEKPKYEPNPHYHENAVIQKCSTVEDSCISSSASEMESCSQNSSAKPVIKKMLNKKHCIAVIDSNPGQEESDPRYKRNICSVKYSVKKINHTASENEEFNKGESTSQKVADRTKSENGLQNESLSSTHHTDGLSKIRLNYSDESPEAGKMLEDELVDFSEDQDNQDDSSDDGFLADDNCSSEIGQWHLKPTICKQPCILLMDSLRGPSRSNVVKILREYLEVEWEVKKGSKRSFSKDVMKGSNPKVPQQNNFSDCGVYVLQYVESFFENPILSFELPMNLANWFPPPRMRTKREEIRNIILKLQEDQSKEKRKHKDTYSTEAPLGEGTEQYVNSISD

[12] = target: T5, Oxysterols receptor LXR-beta (Homo sapiens, UniProt P55055); format: functional, cell-based;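 note: agonist activity at LXR measured by a cell-based luminescence readout across a dose range, run as a counterscreen for daf-12 agonists; HEK293 cells with Gal4-LXR fusion and GAL4-driven luciferase reporter; potency for activation of Gal4-LXR reporter so compounds are agonists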
T5 sequence (P55055 whole entry): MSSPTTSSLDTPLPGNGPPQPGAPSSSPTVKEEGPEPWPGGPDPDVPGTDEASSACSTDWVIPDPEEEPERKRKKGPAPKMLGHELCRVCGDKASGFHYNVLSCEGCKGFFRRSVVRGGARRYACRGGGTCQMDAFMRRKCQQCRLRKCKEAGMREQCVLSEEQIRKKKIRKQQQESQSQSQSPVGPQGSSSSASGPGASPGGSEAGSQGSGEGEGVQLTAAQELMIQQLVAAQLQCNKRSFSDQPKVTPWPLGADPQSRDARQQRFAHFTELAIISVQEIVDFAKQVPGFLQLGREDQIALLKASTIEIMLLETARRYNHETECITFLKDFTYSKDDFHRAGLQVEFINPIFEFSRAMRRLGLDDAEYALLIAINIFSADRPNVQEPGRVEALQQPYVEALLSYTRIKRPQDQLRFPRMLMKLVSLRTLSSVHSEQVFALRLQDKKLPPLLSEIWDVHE

[13] = Reduced DLD-1 viability, concentration-response, CellTiter-Glo luminescence (AID 1117352); format: functional
[14] = cytotoxicity toward HCT116 cells – cell-based, CellTiter-Glo luminescence, IC50, dose response (AID 1117332); format: functional; settings: HCT-116
[15] = RKO cell viability reduction, dose response, CellTiter-Glo luminescence (AID 1117322); format: functional
[16] = CellTiter-Glo luminescence survival assay, SW480 colon tumor line, concentration-response curve, half-maximal inhibitory concentration (AID 1117338); format: functional
[17] = cytotoxicity toward Colo320 cells – cell-based, CellTiter-Glo luminescence, IC50, dose response (AID 1117334); format: functional; settings: COLO 320
[18] = cytotoxicity toward HT-29 cells – cell-based, CellTiter-Glo luminescence, IC50, dose response (AID 1117330); format: functional
[19] = SNU-C1 cell viability reduction, dose response, CellTiter-Glo luminescence (AID 1117323); format: functional, cell-based

Sequence of fMet-Leu-Phe receptor (P21462 whole entry): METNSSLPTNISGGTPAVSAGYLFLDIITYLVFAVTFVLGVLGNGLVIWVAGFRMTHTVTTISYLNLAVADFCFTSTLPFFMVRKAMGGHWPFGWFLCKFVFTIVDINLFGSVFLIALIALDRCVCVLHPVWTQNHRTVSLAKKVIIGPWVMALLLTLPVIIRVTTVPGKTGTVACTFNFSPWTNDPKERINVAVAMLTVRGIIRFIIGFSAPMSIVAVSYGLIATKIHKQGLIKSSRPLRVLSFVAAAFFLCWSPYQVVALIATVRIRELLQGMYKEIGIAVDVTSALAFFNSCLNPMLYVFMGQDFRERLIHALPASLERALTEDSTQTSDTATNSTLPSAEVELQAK

SMILES: COc1ccc(/C=C/C(=O)c2ccc(OC)cc2OC)cc1
- IC50 [1]: > 10 µM (inactive)
- IC50 [2]: > 10 µM (inactive)

SMILES: C[C@H]1CCCCO[C@@H](CN(C)S(=O)(=O)c2cccs2)[C@@H](C)CN([C@@H](C)CO)C(=O)c2cc(NS(=O)(=O)c3ccc(Cl)cc3)ccc2O1
- AC50 [3]: 42.6 µM (active)
- AC50 [4]: > 70 µM (inactive)
- AC50 (Paired box protein Pax-8): 7.93 µM (active)
- AC50 [5]: 14.1 µM (active)

SMILES: Cc1ccc(/C=N/N=C/c2ccc(C)s2)s1
- IC50 [9]: 5.6 µM (active)
- IC50 [10]: 21.9 µM (active)
- IC50 (Caspase-3): 18.5 µM (active)
- IC50 [11]: 18.7 µM (active)
- EC50 [12]: > 67.5 µM (inactive)

SMILES: Cc1c(C)c2c(c(C)c1O)CC[C@@](C)(CCC[C@H](C)CCC[C@H](C)CCCC(C)C)O2 [alpha-TOCHOPHEROL]
- IC50 [13]: > 20 µM (inactive)
- IC50 [14]: > 20 µM (inactive)
- IC50 [15]: 2.61 µM (active)
- IC50 [16]: > 20 µM (inactive)
- IC50 [17]: > 20 µM (inactive)
- IC50 [18]: > 20 µM (inactive)
- IC50 [19]: > 20 µM (inactive)

Now from value to compound:

- Ki (fMet-Leu-Phe receptor): > 66.7 µM (inactive)
SMILES: C=CCOc1cccc(C2C(C(=O)c3ccco3)=C(O)C(=O)N2CCN2CCOCC2)c1 (configuration not stated)

- IC50 [6]: > 69.5 µM (inactive)
- IC50 [7]: > 69.5 µM (inactive)
SMILES: Cc1ccc(-n2c(Cc3cccs3)nnc2SCC(=O)Nc2ccc(OCc3ccccc3)cc2)cc1

- IC50 [8]: > 100 µM (active)
SMILES: CN(C)c1ccc(/C=N\NC(=O)c2csnn2)cc1

From ChEMBL document CHEMBL1201862, “PubChem BioAssay data set” (2004)
